The subject of one assay is Swiss 3T3 cells. Nature of the assay: Inhibition of DNA synthesis as monitored by 3H-thymidine uptake. Type of assay: cell-based. The note with it: Swiss 3T3 cells stimulated with growth factor (PDGFbb or Fetal Bovine Serum), 24 hours; compound concentration not given. The protocol: Inhibition of DNA Synthesis as Monitored by ^3 H-Thymidine Uptake
DNA synthesis occurs when a cell is exposed to Platelet Derived Growth Factor (PDGF). For PDGF-induced DNA synthesis to occur, c-SRC or another member of the SRC gene family is required. The ability of the SRC SH2 inhibitors of the present invention to block PDGF-stimulated DNA synthesis can be assessed using the protocol set forth below.
Swiss 3T3 cells were grown in 12-well plates for 3 days to approximately 50% confluency. The growth media was removed and replaced with 1.0 mL/well of assay buffer (Dulbecco's Modified Eagle Medium containing 0.2% Bovine Serum Albumin), and incubated for 24 hours to arrest growth.
Test compounds (5 μL) were add at 100 times their final concentration. Methyl sulfoxide was used as a control and levels in all wells kept under 1.0% of DMSO. Cells were then stimulated with growth factor (PDGFbb or Fetal Bovine Serum), and allowed to incubate another 24 hours.
During the final 2 hours of treatment, 5 uL of 0.1 μCi/μL ^3 H-thymidine was added to each well (final=0.5 μCi/well)
After incubation the medium was removed by aspiration, and each well was washed twice with ice-cold phosphate buffered saline (0.5 mL/wash). 0.5 mL ice-cold 5% trichloroacetic acid was added to each well and incubated on ice for a minimum 10 minutes. The trichloroacetic acid solution was removed and each well was washed twice with 0.5 mL ice-cold trichloroacetic acid, and then once with ice-cold water (0.5 mL). 0.5 mL of 2% Sodium Dodecyl Sulfate was added to each well to solubilize the cells and allowed to incubate at room temperature for 10-15 minutes. The solubilized cells were transfered to 20 mL scintillation vials. Each well was washed with 0.5 mL of water and combined with the corresponding scintillation vial. 10 mL of Ready-Gel scintillation cocktail was added to each vial and the vials were then counted in a scintillation counter. Results are shown as percent of ^3 H-thymidine uptake relative to control in Table 4 below.

The target in the next assay is T1, Abl SH2 (Homo sapiens, UniProt P00519).
T1 construct: glutathione-S-transferase(GST)-Abl SH2 fusion protein
T1 sequence (P00519 127-217 limits assumed): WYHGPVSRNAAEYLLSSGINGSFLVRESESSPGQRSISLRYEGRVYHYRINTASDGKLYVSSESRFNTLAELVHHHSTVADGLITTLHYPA
In words: Inhibition of 125I-phosphopeptide binding to immobilized Abl SH2. The note with it: competitive 125I-phosphopeptide displacement, GST-Abl SH2 fusion protein, pH 7.5, room temperature, 20 minutes. The protocol:
The binding affinities of compounds of the present invention to Abl SH2 was determined using a competitive radiolabeled phosphopeptide displacement assay. […] Binding was performed at room temperature for 20 minutes while continuously inverting the plate.

A further assay addresses T2, Src SH2 (Homo sapiens, UniProt P12931).
T2 construct: glutathione-S-transferase(GST)-Src SH2 fusion protein
In words: Inhibition of 125I-phosphopeptide binding to immobilized Src SH2. The note with it: competitive 125I-phosphopeptide displacement, GST-Src SH2 fusion protein, pH 7.5, room temperature, 20 minutes. The protocol:
The binding affinities of compounds of the present invention to Src SH2 was determined using a competitive radiolabeled phosphopeptide displacement assay.
Binding was performed at room temperature for 20 minutes while continuously inverting the plate. […] Results are expressed as IC50 values in Table 1 below.

Assay [1] deals with T3, Grb2 SH2-GST binding to PDGF receptor kinase domain (Homo sapiens, UniProt P62993).
T3 construct: S-X-SH2-GST (X=Src, Ab1, Grb2, p85-N, p85-C, Syp-N, and PLCy-C domains)
Nature of the assay: Inhibition of activated PDGF receptor binding to 35S-SH2 domains: Grb2 SH2-GST. The following applies: 35S-Grb2 SH2-GST, immobilized PDGF receptor kinase domain, pH 7.5, room temperature, 30 minutes.
Description: (§1) Inhibition of Activated PDGF Receptor Binding to ^35 S-SH2 Domains
(§2) The assay was conducted at room temperature for 30 minutes while continuously inverting the plate. The resultant SH2-GST-PDGF receptor kinase complex was separated from excess ^35 S-SH2-GST protein by vacuum filtration and the amount of bound SH2-GST was determined by scintillation counting.

Assay [2] has as its target T4, PLCγ(C) SH2-GST binding to PDGF receptor kinase domain (Homo sapiens, UniProt P19174).
T4 construct: S-X-SH2-GST (X=Src, Ab1, Grb2, p85-N, p85-C, Syp-N, and PLCy-C domains)
T4 sequence (P19174 668-756 limits assumed): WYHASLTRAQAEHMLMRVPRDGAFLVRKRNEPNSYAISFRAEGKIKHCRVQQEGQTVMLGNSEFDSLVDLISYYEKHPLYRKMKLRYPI
In words: Inhibition of activated PDGF receptor binding to 35S-SH2 domains: PLCγ(C) SH2-GST. The note with it: 35S-PLCγ(C) SH2-GST, immobilized PDGF receptor kinase domain, pH 7.5, room temperature, 30 minutes.
Description: as §1, §2

Assay [3] addresses T5, p85(C) SH2-GST binding to PDGF receptor kinase domain (Homo sapiens, UniProt P27986).
T5 construct: S-X-SH2-GST (X=Src, Ab1, Grb2, p85-N, p85-C, Syp-N, and PLCy-C domains)
In words: Inhibition of activated PDGF receptor binding to 35S-SH2 domains: p85(C) SH2-GST. The note with it: 35S-p85(C) SH2-GST, immobilized PDGF receptor kinase domain, pH 7.5, room temperature, 30 minutes.
Description: as §1, §2

Assay [4] addresses T6, Syp(N) SH2-GST binding to PDGF receptor kinase domain (Homo sapiens, UniProt Q06124).
T6 construct: S-X-SH2-GST (X=Src, Ab1, Grb2, p85-N, p85-C, Syp-N, and PLCy-C domains)
Nature of the assay: Inhibition of activated PDGF receptor binding to 35S-SH2 domains: Syp(N) SH2-GST. The note with it: 35S-Syp(N) SH2-GST, immobilized PDGF receptor kinase domain, pH 7.5, room temperature, 30 minutes.
Description: as §1, §2

The mark [5] stands for this setting: read-out: IC50, Abl SH2 Binding.
Setting [6] is: read-out: IC50, SRC SH2 Binding.

Like-named read-outs stand apart in the source and are kept apart here. Where only a bound is given, the exact number is not on record here.

T2 sequence (P12931 151-248 limits assumed): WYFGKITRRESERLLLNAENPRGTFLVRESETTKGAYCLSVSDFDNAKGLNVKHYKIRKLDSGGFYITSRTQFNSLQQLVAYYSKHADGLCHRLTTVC
T3 sequence (P62993 60-152 limits assumed): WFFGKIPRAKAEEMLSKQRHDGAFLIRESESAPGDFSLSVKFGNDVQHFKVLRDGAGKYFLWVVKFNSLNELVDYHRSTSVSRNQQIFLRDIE
T5 sequence (P27986 624-718 limits assumed): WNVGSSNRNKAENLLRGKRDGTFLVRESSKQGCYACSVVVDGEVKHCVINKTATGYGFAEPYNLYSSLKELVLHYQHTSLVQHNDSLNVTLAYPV
T6 sequence (Q06124 6-102): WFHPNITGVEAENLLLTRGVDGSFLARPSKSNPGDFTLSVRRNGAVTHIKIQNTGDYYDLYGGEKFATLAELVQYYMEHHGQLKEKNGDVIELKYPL

Consider `CC(=O)N[C@@H](Cc1ccc(C(F)(F)P(=O)(O)O)cc1)C(=O)NC(C)c1ccc(OCC2CCCCC2)c(C(N)=O)c1` (single isomer, unassigned) [Example 63a, [S-(R*,R*)]- or [S-(R*,S*)]-[(4-{2-Acetylamino-2-[1-(3-carbamoyl-4-cyclohexylmethoxy-phenyl)-ethylcarbamoyl]-ethyl]-phenyl)-difluoro-methyl]-phosphonic acid], for which, in the assay with Swiss 3T3 cells, the “3H-Thymidine Uptake, % Uptake Relative to Control” value worked out at 73%. Further, the values for the IC50 on Abl SH2 (setting [5]) and on Src SH2 (setting [6]) were 2 µM and 0.3 µM, respectively.
Take `CC(=O)N[C@@H](Cc1ccc(C(F)(F)P(=O)(O)OCOC(=O)C(C)(C)C)cc1)C(=O)NC(C)c1ccc(OCC2CCCCC2)c(C(N)=O)c1` (single isomer, unassigned) [Example 77, [S-(R*,R*)]- or [S-(R*,S*)]-2,2-Dimethyl-propionic acid {[(4-{2-Acetylamino-2-[1-(3-carbamoyl-4-cyclohexylmethoxy-phenyl)-ethylcarbamoyl]-ethyl}-phenyl)-difluoro-methyl} hydroxy-phosphinoyloxymethyl ester]: the “3H-Thymidine Uptake, % Uptake Relative to Control” value in the assay with Swiss 3T3 cells came out at 34%.
Regarding `CC(=O)N[C@@H](Cc1ccc(OP(=O)(O)O)cc1)C(=O)N[C@@H](CCC(=O)O)C(=O)N(C)CCCC1CCCCC1` [Example 1, [S-(R*,R*)]-4-[2-Acetylamino-3-(4-phosphonooxy-phenyl)-propionylamino]-4-[(3-cyclohexyl-propyl)-methylcarbamoyl]-butyric acid], the IC50 in assay [1], in assay [2], in assay [3] and in assay [4] was more than 100 µM throughout.
With `CC(=O)N[C@@H](Cc1ccc(C(F)(F)P(=O)(O)O)cc1)C(=O)N[C@@H](CCC(=O)O)C(=O)N(C)CCCC1CCCCC1` [Example 5, [S-(R*,R*)]-4-{2-Acetylamino-3-[4-(difluoro-phosphonomethyl)-phenyl]-propionylamino}-4-[(3-cyclohexylpropyl)-methyl-carbamoyl]-butyric acid], the concentration for half-maximal inhibition (IC50) in assay [1], in assay [2], in assay [3] and in assay [4] was more than 100 µM each time.
On to `CC(=O)N[C@@H](Cc1ccc(OP(=O)(O)O)cc1)C(=O)N[C@@H](CCC(=O)O)C(=O)N1CCC[C@@H]1CCC1CCCCC1` [Example 12, 4-[(S)-2-Acetylamino-3-(4-phosphonooxy-phenyl)-(S)-propionylamino]-5-[2-((S)-2-cyclohexyl-ethyl)-pyrrolidin-1-yl]-5-oxo-pentanoic acid], for which the results for the IC50 on Abl SH2 (setting [5]) and at Src SH2 (setting [6]) were 2.5 µM and 0.7 µM, respectively.
As to `CC(=O)N[C@@H](Cc1ccc(OP(=O)(O)O)cc1)C(=O)N[C@@H](CCC(=O)O)C(=O)NCCCc1cccc(OCC(N)=O)c1` [Example 24, [S-(R*,R*)]-4-[2-Acetylamino-3-(4-phosphonooxy-phenyl)-propionylamino]-4-[3-(3-carbamoylmethoxy-phenyl)-propylcarbamoyl]-butyric acid], the IC50 (as a rule, the concentration that gives 50% inhibition) at Abl SH2 (IC50, Abl SH2 Binding) was 36 µM; on Src SH2 (IC50, SRC SH2 Binding), 7.2 µM.
For `CCC(CC)(NC(=O)[C@H](Cc1ccc(OP(=O)(O)O)cc1)NC(C)=O)C(=O)NCCCc1ccccc1` [Example 57, (S)-Phosphoric acid mono-(4-{2-acetylamino-2-[1-ethyl-1-(3-phenyl-propylcarbamoyl)-propylcarbamoyl]-ethyl}-phenyl) ester], in that order: 20 µM and 33 µM.
As to `CC(=O)N[C@@H](Cc1ccc(OP(=O)(O)O)cc1)C(=O)N[C@H](C(=O)NCCCc1ccccc1)C(C)O` (stereo partly drawn) [Example 58, [S-(R*,R*)]-Phosphoric acid mono-(4-{2-acetylamino-2-[2-hydroxy-1-(3-phenyl-propylcarbamoyl)-propylcarbamoyl]-ethyl}-phenyl) ester], the IC50 at Abl SH2 (IC50, Abl SH2 Binding) is approximately 60 µM; on Src SH2 (IC50, SRC SH2 Binding), 21 µM.
Consider `CN(C)C(=O)N[C@@H](Cc1ccc(OP(=O)(O)O)cc1)C(=O)N[C@@H](CCC(=O)O)C(=O)N(C)CCCC1CCCCC1` [Example 59, [S-(R*,R*)]-4-[(3-Cyclohexyl-propyl)-methyl-carbamoyl]-4-[2-(3,3-dimethyl-ureido)-3-(4-phosphonooxy-phenyl)-propionylaminol-butyric acid], for which the IC50 on Abl SH2 (IC50, Abl SH2 Binding) was 4.5 µM; at Src SH2 (IC50, SRC SH2 Binding) it was 1.1 µM.
On to `CN(CCCC1CCCCC1)C(=O)[C@H](CCC(=O)O)NC(=O)[C@H](Cc1ccc(OP(=O)(O)O)cc1)NS(=O)(=O)N(C)C` [Example 60, 5-[(3-cyclohexylpropyl)methylamino]-4-[[2-[[(dimethylamino)-sulfonyl]amino]-1-oxo-3-[4-(phosphonooxy)phenyl]propyl]amino]-5-oxo-pentanoic acid], for which the half-maximal inhibitory concentration (IC50) turned out to be 9.7 µM at Abl SH2 (IC50, Abl SH2 Binding) and 1.9 µM at Src SH2 (IC50, SRC SH2 Binding).
Turning to `CN(CCCC1CCCCC1)C(=O)[C@H](CCC(=O)O)NC(=O)NCc1ccc(OP(=O)(O)O)cc1` [Example 61, (S)-4-[(3-Cyclohexyl-propyl)--methyl-carbamoyl]-4-[3-(4-phosphonooxy-benzyl)-ureido]-butyric acid], the IC50 at Abl SH2 (IC50, Abl SH2 Binding) was approximately 100 µM; on Src SH2 (IC50, SRC SH2 Binding), 16 µM.
In the case of `CN(CCCC1CCCCC1)C(=O)[C@H](CCC(=O)O)NC(=O)c1ccc(OP(=O)(O)O)cc1` [Example 62, (S)-4-[(3-Cyclohexyl-propyl)-methyl-carbamoyl]-4-(4-phosphonooxy-benzoylamino)-butyric acid], the IC50 on Abl SH2 (IC50, Abl SH2 Binding) worked out at 44 µM; on Src SH2 (IC50, SRC SH2 Binding) it was 8.3 µM.
Turning to `CC(=O)N[C@@H](Cc1ccc(OP(=O)(O)O)cc1)C(=O)NCc1ccc(OCC2CCCCC2)c(C(=O)NO)c1` [Example 70, (S)-Phosphoric acid mono-{4-[2-acetylamino-2-(4-cyclohexylmethoxy-3-hydroxycarbamoyl-benzylcarbamoyl)-ethyl]-phenyl} ester], the IC50 on Abl SH2 (IC50, Abl SH2 Binding) was determined as 16 µM; on Src SH2 (IC50, SRC SH2 Binding), 24 µM.
For the molecule `CCc1ccccc1COc1ccc(CNC(=O)[C@H](Cc2ccc(OP(=O)(O)O)cc2)NC(C)=O)cc1C(N)=O` [Example 72, (S)-Phosphoric acid mono-(4-{2-acetylamino-2-[3-carbamoyl-4-(2-ethyl-benzyloxy)-benzylcarbamoyl]-ethyl}-phenyl) ester], the concentration for half-maximal inhibition (IC50) on Abl SH2 (IC50, Abl SH2 Binding) is 28 µM; at Src SH2 (IC50, SRC SH2 Binding), 6.2 µM.
For `NC(=O)c1cc(CNC(=O)Nc2ccc(OP(=O)(O)O)cc2)ccc1OCC1CCCCC1` [Example 74, Phosphoric acid mono-{4-[3-(3-carbamoyl-4-cyclohexylmethoxy-benzyl)-ureido]-phenyl} ester], in that order: more than 100 µM and 20 µM.
With `NC(=O)c1cc(CNC(=O)NCc2ccc(OP(=O)(O)O)cc2)ccc1OCC1CCCCC1` [Example 76, Phosphoric acid mono-{4-[3-(3-carbamoyl-4-cyclohexylmethoxy-benzyl)-ureidomethyl]-phenyl} ester], the half-maximal inhibitory concentration (IC50) on Abl SH2 (IC50, Abl SH2 Binding) is more than 100 µM; at Src SH2 (IC50, SRC SH2 Binding), 34 µM.

The values above are taken from patent US5922697A, “Compounds, compositions and methods for inhibiting the binding of proteins containing an SH2 domain to cognate phosphorylated proteins” (Warner-Lambert Company, priority 1998, dated 1999).
